We go through 5 molecules from publication PMC7920280, “The Multi-Targeting Ligand ST-2223 with Histamine H3 Receptor and Dopamine D2/D3 Receptor Antagonist Properties Mitigates Autism-Like Repetitive Behaviors and Brain Oxidative Stress in Mice” (International Journal of Molecular Sciences, 2021).

Experiment [1] has as its system mice with valproic acid (VPA)-induced ASD. Conditions: cited from earlier work.
The subject of experiment [2] is BTBR and B6 mice. Briefly: Spontaneous alternation behavior (SAB), Y maze. Conditions: BTBR mice; RAM 10 mg/kg i.p. co-administered with ST-2223 5 mg/kg. In kind it is in vivo. On the procedure: (§1) The drugs tested included ST-2223 [N-(4-(4-(2-methoxyphenyl)piperazin-1-yl)butyl)-6-(3-(piperidin-1-yl)propoxy)-2-naphthamide] that was designed and synthesized in the Institute of Pharmaceutical and Medicinal Chemistry, Heinrich Heine University Düsseldorf, Germany, and in accordance with previously described methodologies (Supplementary Materials). Aripiprazole (ARP) (1 mg/kg, i.p.) and memantine (MEM, 5 mg/kg, i.p.), as reference drugs, were purchased from Sigma-Aldrich (St. Louis, MO, USA). The CNS-penetrant H3R agonist (R)-α-methylhistamine (RAM, 10 mg/kg, i.p.) was purchased from Sigma-Aldrich, St. Louis, MO, USA. T. Protease and the phosphatase inhibitor cocktail were procured from Thermo Scientific, USA. The assay kit for reduced glutathione (GSH) was obtained from Sigma-Aldrich (St. Louis, MO, USA). The lipid peroxidation assay kit for estimation of malondialdehyde (MDA) was purchased from North West Life Science (Vancouver, WA, USA). The assay kits for superoxide dismutase (SOD) and catalase (CAT) were purchased from Cayman Chemical (Ann Arbor, MI, USA). The drugs were prepared daily using 1% dimethyl sulfoxide (DMSO) in 0.9% saline, for intraperitoneal (i.p.) administration at a volume of 10 mL/kg of body weight. Vehicle treatment consisted of 1% DMSO in 0.9% normal saline. All drugs were i.p. administered 30 min before the behavioral test. The doses of these drugs were chosen based on previous reports. Neurobehavioral assessment was performed blindly with respect to experimental group and drug administration.
The SAB test is based on the exploratory strategy of rodents to explore a new environment. In examining repetitive behaviors, the Y maze test took advantage of the rodents’ natural tendency to spontaneously alternate or choose a different arm of the maze instead of the one they visited on their previous entry (i.e., least recently visited arm). A decrease in the percentage alternation can also be attributed to same arm repeated visits. Spontaneous alternation behavior was measured on a Y maze apparatus, as previously described, with slight modifications. The Y maze composed of three arms (30 cm × 6 cm × 15 cm), where the arms were labeled with letters: A, B, or C. The test mouse was placed in the center of the maze and was allowed to freely explore the maze for 8 min. The number of entries into each arm and the total number of entries were recorded by the observer. A spontaneous alternation was defined as successive entry into three arms on an overlapping triplet set. Percentage spontaneous alternation was calculated as the number of spontaneous alternations (actual alternations) over the total number of entries (possible alternations). Two arm entries were subtracted from the denominator because an alternation required at least 3 entries. The apparatus was cleaned with 70% alcohol solution after each mouse was tested. (1) Percentage spontaneous alternations=Total alternations/(Total arm entries − 2) ×100

Experiment [3] has as its system BTBR and B6 mice. Briefly: Marble burying task (MBT). It is filed as in vivo. Conditions: BTBR mice. Here is the method: as §1
The MBT is used for testing repetitive and compulsive behaviors as it accurately reflects repetitive digging behavior [95, 96]. The test was performed as described previously, with slight modifications. Briefly, cages (26 cm × 48 cm × 20 cm) were filled with fresh, unscented mouse bedding material to a depth of 5 cm, on top of which 20 marbles were placed in 4 rows of 5 marbles each (15 mm diameter). Before placing the marbles, the bedding surface was leveled by placing another cage of the same size onto the surface of the bedding and then each mouse was individually added for 10 min habituation. After habituation, the mouse was removed, and the marbles were carefully overlaid. The same mouse was then returned to its designated test cage and allowed to explore for 30 min. The total number of marbles buried (>50% marble covered by the bedding material) was determined at the end of the session.

For experiment [4], the system named is BTBR and B6 mice. Briefly: Self-grooming paradigm (SGP). In kind it is in vivo. Conditions: BTBR mice; RAM 10 mg/kg i.p. co-administered with ST-2223 5 mg/kg. On the procedure: as §1
In the SGP test, mice were scored for spontaneous grooming behaviors. […] To measure SGP, each mouse was placed individually in a standard clear plastic cage (28 cm wide × 17 cm long × 12 cm high) for a total of 20 min. Mice were allowed to freely explore the cage for the entire test, the first 10 min served as a habituation period. After 10 min habituation, each mouse was scored with a stopwatch for 10 min for cumulative time spent grooming all body regions. Grooming behavior included head washing, body grooming, genital/tail grooming and paw and leg licking. The observer sat approximately 1 m from the test cage during the second 10 min of testing.

Experiment [5] relates to BTBR and B6 mice. Briefly: Open field test (OFT): locomotor activity and anxiety levels. In kind it is in vivo. The note with it: BTBR mice. Here is the method:
as §1
The open field test (OFT) systematically evaluates exploration behaviors executed in a novel open field (considered as a novel environment), as an independent control for the effects of the drugs on physical activity that could confound the interpretation of the results from the self-grooming, anxiety and spontaneous alternation. Mice were allowed to freely explore an open-field arena (45 × 45 × 30 cm), to assess general locomotor activity, and anxiety-related behaviors. The center arena was defined as the central 23 × 23 cm area. Mice were given 5 min to habituate in the center area of the arena before the recording started for the actual behavioral assessments. Recording lasted for 10 min using charge-coupled device (CCD) camera-assisted motion tracking apparatus and software (EthoVision 3.1, Noldus Information Technology, The Netherlands), and the total distance moved in the whole arena, time spent in the center and periphery were recorded. Test chambers were cleaned with 70% ethanol after each trial and were allowed to dry until ethanol evaporation and odor dissipation had occurred. When interpreting the results observed in this assessment, less time spent in the center was considered as an indicator for high levels of anxiety-like behaviors and total distance travelled signified the overall locomotor activity of tested animals.

The test system of experiment [6] is mice sensitized with PCP. The note with it: acute low dose of PCP in mice sensitized by repeated high-dose PCP; cited from earlier work.
The subject of experiment [7] is oxidative stress markers (e.g., MDA and GSH). The arrangement: method as in PMID 27833522, PMID 27089413, PMID 22331799. Conditions: amphetamine- or dizocilpine-augmented oxidative stress, mouse model of schizophrenia; cited from earlier work.
[8] abbreviates: RAM 10 mg/kg i.p. co-administered with ST-2223 5 mg/kg.

Consider `CCC(C)(C)c1ccc(OCCCN2CCCCC2)cc1` [DL77], for which the “percentage of marbles buried” value in experiment [1] (adult male Tuck-Ordinary mice with VPA-induced ASD features, subchronic 5, 10, 15 mg/kg, i.p.) was “significant and dose-dependent”.
For the molecule `C[C@@H](N)Cc1c[nH]cn1` [RAM, (R)-α-methylhistamine], the “effect of co-administration on the ST-2223 (5 mg)-induced enhancement in alternation” value in experiment [2] is recorded as “entirely reversed”. In addition, the “marble burying behavior vs saline-treated BTBR mice, given alone” value in experiment [3] (RAM 10 mg/kg i.p. alone) is listed as “did not alter”. In addition, in experiment [3] (setting [8]), the “effect of co-administration on the ST-2223 (5 mg)-stimulated decrease in percentage of buried marbles” value is recorded as “reversed”. In experiment [4], the “effect of co-administration on the ST-2223 (5 mg)-induced decrease in time spent self-grooming” value is given as “nullified”. Moreover, the “time spent in the center (OFT) vs saline-treated BTBR mice, given alone” value in experiment [5] (RAM 10 mg/kg i.p. alone) is “did not induce any alternation”. Further, in experiment [5] (setting [8]), the “effect of co-administration on the ST-2223 (5 mg)-induced increase in time spent in the center (OFT)” value is listed as “not reversed”.
Consider `CN1CCCC1CCNS(=O)(=O)c1ccc2c(c1)CN(CC1CCCCC1)CC2` (centres unmarked) [SAR110894], for which, in experiment [6], the “deficit in working memory in the Y maze test” value is “reversed”.
For the molecule `O=C(c1ccc(OCCCc2cnc[nH]2)cc1)C1CC1` [ciproxifan], in experiment [7], the “oxidative stress markers (e.g., MDA and GSH)” value is reported as “mitigated”. Also, in experiment [1] (mice with VPA-induced ASD), the “repetitive behavior in the MBT” value is recorded as “reduced repetitive behavior”.
Consider `NC(=NCc1ccc(Cl)cc1)SCCCc1cnc[nH]1` [clobenpropit], for which, in experiment [7], the “oxidative stress markers (e.g., MDA and GSH)” value is on record as “mitigated”.
